Tests used:
SHRSP = test: Test of improving effect of disturbed sleep pattern (EEG/EMG, REMS); type: in vivo, rat; details: 15 mg/kg orally twice daily over 5 consecutive days, FIG. 7
Excerpt: Test animals: Male SHRSP at 13 weeks of age, which received 1% NaCl solution instead of water over 5 weeks, and Wistar Kyoto rats (WKY) at the same age.
Test method: Animals were anesthetized, and electrodes for electroencephalogram (EEG) and a sensor for brain temperature were implanted into the cerebral cortex and electrodes for electromyogram (EMG) were implanted into the back cervical muscle. All variables were continuously recorded for 7 days, and the behavioral states of rats were classified into wakefulness, REMS, NREMS by analyzing the amplitude and frequency of EEG and EMG waves. 1-p-Anisoyl-2-pyrrolidinone at 15 mg/kg or vehicle was administered orally twice daily (morning and evening) over 5 consecutive days.

ACh release = test: Test of the enhancing effect of ACh release (brain microdialysis in freely moving SHRSP); type: in vivo, rat; details: for enhancement of ACh release (percent change over baseline): perfused for 20 minutes through microdialysis probe (10^-7 to 10^-5 M)
Excerpt: Test animals: Male stroke-prone spontaneously hypertensive rats (SHRSP) at 13 weeks of age, which received 1% NaCl solution instead of water for 5 weeks prior to the experiment. Test method: SHRSP were anesthetized and a guide cannula was implanted into the thalamus, dorsal hippocampus and prefrontal cortex. After recovery, a concentric microdialysis probe was inserted into the guide cannula and perfused with normal Ringer solution containing 10^−5 M eserine (SIGMA, St. Louis, USA) at a constant flow rate of 2 μl/min under freely moving condition. […] The dialysates for every 20 minutes were collected and injected into the high-pressure liquid chromatography system to quantify extracellular ACh levels. ACh release was expressed as percent change over the average of three consecutive stable samples collected before drug perfusion.

aged Wistar rats = test: Test of the ameliorating effect of impaired circadian rhythm (food-motivated anticipatory activity); type: in vivo, rat; details: 30 and 100 mg/kg orally once daily for 7 consecutive days, FIG. 5
Experimental: Test animals: Male Wistar rats at 9 weeks of age (young group) and around 30 months of age (aged group).
Test method: Animals were individually housed and had free access to food and water. After fasting for 24 hours (Day 0), feeding was restricted to only 1 hour/day from 13:30 for 6 consecutive days. Food was again withheld on Day 7, and food-motivated circadian anticipatory activity was investigated. 1-p-Anisoyl-2-pyrrolidinone at 30 and 100 mg/kg or vehicle was orally administered immediately after the feeding time, once daily for 7 consecutive days. Spontaneous motor activity was measured in each home cage.

rats [1] = test: Acute toxicity after oral administration to rats (LD50); type: in vivo, rat; details: both sexes
rats [2] = details: repeated oral administration over 4 weeks, up to 600 mg/kg
[3] = Acute toxicity after oral administration to rats (LD50); type: in vivo, rat; details: rat, in vivo
[4] = dorsal hippocampus of SHRSP, FIG. 2
[5] = prefrontal cortex of SHRSP, FIG. 3

SMILES | reduced diurnal REMS (SHRSP) | effect on ACh release (ACh release; any cerebral regions (thalamus, dorsal hippocampus, prefrontal cortex) of SHRSP) | impaired food-motivated anticipatory activity (aged Wistar rats) | acute toxicity (LD50 values) (rats [1]) | enhancement of ACh release (percent change over baseline) (ACh release; [4]) [%] | enhancement of ACh release (percent change over baseline) (ACh release; [5]) [%] | enhancement of ACh release (percent change over baseline) (ACh release; thalamus of SHRSP, FIG. 1) [%] | sub-acute toxicity, such as lethality and abnormality in hematological, hematobiochemical and toxipathological tests (rats [2]) | LD50 ([3]; female animals) [mg/kg] | LD50 ([3]; male animals) [mg/kg]
COc1ccc(C(=O)N2CCCC2=O)cc1 [1-p-anisoyl-2-pyrrolidinone, 1-p-Anisoyl-2-pyrrolidinone] | ameliorated | not observed | significantly ameliorated | – | – | – | – | – | – | –
COc1ccc(C(=O)NCCCC(=O)O)cc1 [N-anisoyl-GABA, N-anisoyl-γ-aminobutyric acid] | – | – | – | more than 5,000 mg/kg | 48 | 70 | 32 | not observed | – | –
COc1ccc(C(=O)O)cc1 [p-anisic acid] | – | – | – | – | 51 | 61 | 22 | not observed | 2120 | 1810

From patent US20030073744A1, “Agent for enhancing cerebral acetylcholine release” (priority 1999, published 2003)
